From PMC7897990, “TriTOX: A novel Trichomonas vaginalis assay platform for high-throughput screening of compound libraries” (International Journal for Parasitology: Drugs and Drug …, 2021)
Read-outs that look alike come from different tables or passages of the source.

Columns and labels:
[1] = system: Trichomonas vaginalis G3 trophozoites; assay: microbe, parasite or virus in culture; details: 48 h
[2] = system: Trichomonas vaginalis G3 trophozoites; details: for T.vaginalis_Absorbance_Rep1 / T.vaginalis_Absorbance_Rep2: HTS, parasite screen at 1 µg/mL; for T.vaginalis_Absorbance_Rep1: replicate 1, raw absorbance; for T.vaginalis_Absorbance_Rep2: replicate 2, raw absorbance
[3] = system: nontumorigenic neonatal foreskin fibroblast (NFF) cell line
[4] = system: T. vaginalis; assay: Medium-throughput (MTS) confirmatory dose-response growth assay, T. vaginalis; type: cell-based, Trichomonas vaginalis; details: for activity against T. vaginalis in MTS, in words: 10-point dilution series, 96-well; for activity against T. vaginalis in MTS, in words / IC50: 48 h; for IC50: 96-well, 10,000 cells/mL in 50 μL, mean ± SEM, >10 = no appreciable activity at highest dose
Description: (§1) For microtiter plate assays, trichomonads were grown in anaerobic conditions within GasPak EZ anaerobe pouches with fresh anaerobic sachets. Working reagent of the chromogen was phenol red (Sigma) in a 1% w/v working solution in phosphate buffered saline (PBS), which was filter sterilised. Chromogen absorbance was monitored at 570 nm on an absorbance microplate reader after plates were allowed to equilibrate in atmospheric conditions at room temperature for at least 5 min.
(§2) After absorbances were measured, data were processed as followed unless indicated otherwise in the text. […] Prism 8 (GraphPad) was used to plot dose-response curves and calculate IC50 values, using a least squares regression, log[inhibitor] vs normalised response (variable slope, four parameters) model. Where replicate plates were used, data for dose-response curves were plotted as the mean±SD of these replicates.
(§3) A selection of 17 compounds assayed in the high-throughput screen (HTS) for T. vaginalis which were available through BioAustralis were obtained for validation of inhibitory in/activity in our optimised medium-throughput format. For this, a 10-point serial dilution was used for drug-susceptibility testing to calculate IC50 values of ‘hit’ compounds. Mtz was used as a positive control. Each screen was performed with 3 technical replicates and a minimum of 2 biological replicates in both T. vaginalis and T. foetus using assay conditions of seeds of 10,000 cells/mL in 50 μL, with absorbance measured at 48 h. Dose response curves and IC50 were calculated for each compound as described above in Section 2.3.

[5] = system: T. foetus; assay: Medium-throughput (MTS) confirmatory dose-response growth assay, T. foetus; type: cell-based, Tritrichomonas foetus; details: 48 h
Description: as §1, §2, §3

[6] = read-out: T.vaginalis_%inb_Rep1
[7] = read-out: T.vaginalis_%inb_Rep2

SMILES	inhibition of growth at 1 µg/mL [1, 6] [%]	inhibition of growth at 1 µg/mL [1, 7] [%]	T.vaginalis_Absorbance_Rep1 [2]	T.vaginalis_Absorbance_Rep2 [2]	NFF_Activity ([3]; NFF_NS1 screen at 5 µg/mL)	other results
C[C@@](O)(/C=C/[C@H]1CC=CC(=O)O1)[C@@H](C[C@@H](O)\C=C/C=C\C=C\CO)OP(=O)(O)O [Fostriecin]	13.7	13.8	0.964	0.811	I (otherwise these were reported as inactive (I))	
CCC(C)CC1CCC(O)(C(C)(O)C(=O)NC2C(=O)N3NCCCC3C(=O)N(O)C(C)C(=O)NCC(=O)N3NCCCC3C(=O)N(O)C(C)C(=O)OC2C(C)C)OC1C (centres unmarked) [L 156602]						activity against T. vaginalis in MTS, in words [4]: true positives; IC50 [4]: 0.059 ± 0.004 µM; IC50 ([5]; 96-well, 10,000 cells/mL in 50 μL, mean ± SEM, >10 = no appreciable activity at highest dose): 0.44 ± 0.18 µM
COC(=O)c1ccc(CCCCCCCCCCc2ccc(C(=O)OC)nc2)cn1 [Penicolinate A, penicolinate A]						T.vaginalis_%inb_Rep1 ([2]; HTS replicate 1, parasite screen 1 µg/mL): 78.85%; T.vaginalis_%inb_Rep2 ([2]; HTS replicate 2, parasite screen 1 µg/mL): 85.50%; activity against T. vaginalis in MTS, in words [4]: true positives; IC50 [4]: 2.7 ± 0.9 µM; species-specificity T. vaginalis vs T. foetus in MTS ([4]; comparison of MTS IC50 in both species): selective activity against T. vaginalis but not T. foetus; activity against T. foetus in MTS, in words ([5]; 10-point dilution series, 96-well): weak activity
CC[C@H](C)[C@H]1C(=O)O[C@H](C(C)C)C(=O)N(C)[C@@H](C(C)C)C(=O)O[C@H](C(C)C)C(=O)N(C)[C@@H](C(C)C)C(=O)O[C@H](C(C)C)C(=O)N1C [Enniatin B1]	13.9	15	0.967	0.828	I (otherwise these were reported as inactive (I))	
CO[C@H]1C[C@@H]2CC[C@@H](C)[C@@](O)(O2)C(=O)C(=O)N2CCCC[C@H]2C(=O)O[C@H]([C@H](C)C[C@@H]2CC[C@@H](OCCO)[C@H](OC)C2)CC(=O)[C@H](C)/C=C(\C)[C@@H](O)[C@@H](OC)C(=O)[C@H](C)C[C@H](C)/C=C/C=C/C=C/1C [Everolimus]	14.8	10.1	0.983	0.76	I (otherwise these were reported as inactive (I))	
CC(C)[C@H]1C(=O)O[C@H](C(C)C)C(=O)N(C)[C@@H](C(C)C)C(=O)O[C@H](C(C)C)C(=O)N(C)[C@@H](C(C)C)C(=O)O[C@H](C(C)C)C(=O)N1C [Enniatin B]	15.2	5.42	0.992	0.695	I (otherwise these were reported as inactive (I))	
C/C(=C\c1csc(C)n1)[C@@H]1C[C@@H]2O[C@]2(C)CCC[C@H](C)[C@H](O)[C@@H](C)C(=O)C(C)(C)[C@@H](O)CC(=O)O1 [epothilone B, reference compound]	74.9	67.3	2.179	1.684	I (otherwise these were reported as inactive (I))	selectivity: anti-trichomonal vs anti-tumour (NS-1) and cytotoxic (NFF) activity ([2]; single concentration screens of the same library, NS-1/NFF active if >25% inhibition): selective for T. vaginalis
CC[C@@H]1C[C@H]2CC[C@H](O2)[C@H](C)C(=O)O[C@@H](C)C[C@@H]2CC[C@@H](O2)[C@@H](C)C(=O)O[C@H](CC)C[C@H]2CC[C@H](O2)[C@H](C)C(=O)O[C@@H](C)C[C@@H]2CC[C@@H](O2)[C@@H](C)C(=O)O1 [Dinactin]	8.56	8.17	0.868	0.733	I (otherwise these were reported as inactive (I))	
C/C(=C\c1csc(C)n1)[C@@H]1C[C@@H]2O[C@@H]2CCC[C@H](C)[C@H](O)[C@@H](C)C(=O)C(C)(C)[C@@H](O)CC(=O)O1 [Epothilone A]	71.4	87	2.11	1.991	I (otherwise these were reported as inactive (I))	
C=CC(C)(C)c1[nH]c2c(CC=C(C)C)cc(CC=C(C)C)cc2c1C[C@@H]1NC(=O)[C@H](C)NC1=O [Echinulin]	15.7	16.6	1.001	0.85	I (otherwise these were reported as inactive (I))	
CN1C(=O)[C@]23C[C@@H]4C(C)(C)[C@@]5(C[C@@]41CN2CC[C@@]3(C)O)C(=O)Nc1c5ccc2c1OC=CC(C)(C)O2 [Paraherquamide A]	15.8	15.5				NFF_Activity ([3]; NFF fibroblasts, single concentration 5 µg/mL): I (otherwise these were reported as inactive (I))
